Experimental data: the supplement of paper PMC10331698
± gives the standard deviation of the averaged measurements.

Key:
Assay in all cases: level (log10 ratio to DMSO vehicle control); higher = higher biomarker level / cell amount than vehicle control
Settings in all cases: in DMSO
Heptafluorobutyl iodide = compound: FC(F)(F)C(F)(F)C(F)(F)CI [Heptafluorobutyl iodide]
Method: (§1)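 BioMAP Diversity Plus panel of 12 human primary cell co-culture systems (3C, 4H, LPS, SAg, BT, BF4T, BE3C, CASM3C, HDF3CGF, KF3CT, MyoF, Mphg). Compounds were added 1 h before stimulation and left for 24 h (MyoF 48 h; BT 72 h for soluble read-outs or 6 d for IgG). Biomarkers were read by ELISA, cytotoxicity by SRB, PBMC viability and proliferation by Alamar Blue. Each well value was divided by the mean of 8 DMSO control wells on the same plate and log10 transformed; duplicate blinded samples were tested at 4 concentrations.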

[1] = compound: O=C(O)C=CC(F)(C(F)(F)F)C(F)(F)F [3-(Perfluoroisopropyl)-2-propenoic acid]
Method: as §1

[2] = compound: FC(F)(F)C(F)(F)C(F)(F)C(F)(F)C(F)(F)C(F)(F)CC1CO1 [3-(Perfluorohexyl)-1,2-epoxypropane]
Method: as §1

Hexafluoroamylene glycol = compound: OCC(F)(F)C(F)(F)C(F)(F)CO [Hexafluoroamylene glycol]
Method: as §1

[3] = compound: NC(=O)C(F)(F)C(F)(F)C(F)(F)C(F)F
Method: as §1

[4] = compound: O=S(=O)(O)CCC(F)(F)C(F)(F)C(F)(F)C(F)(F)C(F)(F)C(F)(F)F [6:2 Fluorotelomer sulfonic acid]
Method: as §1

[5] = compound: COC(=O)C(F)(F)C(F)(F)OC(F)(C(F)(F)F)C(F)(F)OC(F)=C(F)F [Methyl perfluoro(3-(1-ethenyloxypropan-2-yloxy)propanoate)]
Method: as §1

Row | Test System | level (log10) (Heptafluorobutyl iodide; 6700 nM) | level (log10) (Heptafluorobutyl iodide; 20000 nM) | level (log10) (Heptafluorobutyl iodide; 60000 nM) | level (log10) ([1]; 6700 nM) | level (log10) ([1]; 20000 nM) | level (log10) ([1]; 60000 nM) | level (log10) ([2]; 6700 nM) | level (log10) ([2]; 20000 nM) | level (log10) ([2]; 60000 nM) | level (log10) (Hexafluoroamylene glycol; 6700 nM) | level (log10) (Hexafluoroamylene glycol; 20000 nM) | level (log10) (Hexafluoroamylene glycol; 60000 nM) | level (log10) ([3]; 6700 nM) | level (log10) ([3]; 20000 nM) | level (log10) ([3]; 60000 nM) | level (log10) ([4]; 6700 nM) | level (log10) ([4]; 20000 nM) | level (log10) ([4]; 60000 nM) | level (log10) ([5]; 6700 nM) | level (log10) ([5]; 20000 nM)
1 | BF4T:Keratin 8/18 | -0.022 ± 0.014 | -0.0265 ± 0.0035 | -0.0045 ± 0.039 | -0.018 ± 0.028 | -0.0135 ± 0.0021 | -0.0035 ± 0.044 | -0.0045 ± 0.03 | -0.014 ± 0.011 | 0.015 ± 0.037 | 0.0045 ± 0.018 | -0.0075 ± 0.0092 | 0.0125 ± 0.013 | 0.004 ± 0.042 | 0.005 ± 0.011 | 0.0135 ± 0.026 | 0.0075 ± 0.019 | -0.0065 ± 0.016 | 0.0045 ± 0.011 | 0.029 ± 0.02 | 0.015 ± 0.042
2 | BF4T:MMP-1 | -0.005 ± 0.013 | -0.0055 ± 0.0035 | 0.0055 ± 0.012 | -0.0055 ± 0.012 | -0.0055 ± 0.0035 | 0.017 ± 0.03 | -0.003 ± 0.0057 | 0.0045 ± 0.0021 | 0.023 ± 0.027 | -0.0105 ± 0.005 | -0.007 ± 0.0014 | 0 ± 0.0085 | 0.003 ± 0.0085 | -0.003 ± 0.0085 | 0.0075 ± 0.0035 | -0.0085 ± 0.00071 | -0.0125 ± 0.0078 | 0.0065 ± 0.013 | 0.0055 ± 0.019 | 0.0095 ± 0.0021
3 | BF4T:MMP-3 | 0.0245 ± 0.036 | -0.02 ± 0.0014 | 0.026 ± 0.017 | -0.003 ± 0.014 | -0.0035 ± 0.015 | 0.0205 ± 0.033 | 0.0155 ± 0.011 | 0.018 ± 0.024 | 0.0475 ± 0.03 | -0.016 ± 0.037 | -0.0205 ± 0.028 | 0.011 ± 0.042 | 0.01 ± 0.033 | -0.005 ± 0.047 | 0.0075 ± 0.047 | -0.0095 ± 0.074 | -0.0015 ± 0.0035 | 0.0515 ± 0.025 | 0.0165 ± 0.018 | 0.102 ± 0.021
4 | BF4T:MMP-9 | -0.008 ± 0.0085 | -0.018 ± 0.013 | 0.0025 ± 0.03 | 0.0015 ± 0.029 | 0.004 ± 0.0099 | 0.025 ± 0.04 | 0.001 ± 0.0071 | 0.005 ± 0.0071 | 0.023 ± 0.04 | -0.0045 ± 0.011 | -0.0165 ± 0.0035 | 0.0105 ± 0.035 | 0.013 ± 0.051 | -0.006 ± 0.055 | -0.001 ± 0.047 | -0.0015 ± 0.036 | -0.0095 ± 0.0078 | 0.018 ± 0.024 | -0.0175 ± 0.018 | 0.0125 ± 0.069
5 | BF4T:PAI-I | 0.0005 ± 0.0092 | -0.002 ± 0.0042 | 0.0065 ± 0.021 | 0 ± 0.0099 | 0.001 ± 0.0014 | 0.0155 ± 0.026 | 0.003 ± 0.0085 | 0.007 | 0.007 ± 0.018 | -0.0025 ± 0.013 | -0.002 ± 0.021 | 0.0065 ± 0.0064 | -0.0005 ± 0.019 | -0.0095 ± 0.021 | 0.004 ± 0.0085 | 0.0075 ± 0.005 | -0.0235 ± 0.012 | -0.0265 ± 0.0078 | -0.016 ± 0.0085 | -0.0175 ± 0.021
6 | BF4T:SRB | 0.001 ± 0.0028 | -0.002 ± 0.0071 | 0.0015 ± 0.0064 | -0.008 ± 0.011 | -0.008 ± 0.0099 | 0.006 ± 0.018 | -0.008 ± 0.011 | -0.0105 ± 0.0078 | 0.0015 ± 0.019 | 0.0025 ± 0.018 | 0.002 ± 0.0085 | 0 ± 0.0057 | -0.0075 ± 0.00071 | -0.0125 ± 0.011 | -0.0025 ± 0.0078 | 0.0005 ± 0.00071 | -0.003 ± 0.0042 | -0.003 ± 0.0057 | -0.005 ± 0.016 | 0.0035 ± 0.026
7 | BF4T:tPA | -0.016 ± 0.0042 | -0.0235 ± 0.0078 | -0.009 ± 0.05 | -0.004 ± 0.037 | -0.0055 ± 0.022 | 0.03 ± 0.024 | 0.0155 ± 0.039 | -0.011 ± 0.0085 | 0.031 ± 0.034 | -0.017 ± 0.021 | -0.0015 ± 0.0092 | 0.012 ± 0.038 | -0.0005 ± 0.021 | -0.0115 ± 0.022 | 0.0125 ± 0.005 | -0.008 ± 0.027 | -0.036 ± 0.028 | -0.0355 ± 0.036 | -0.053 ± 0.025 | -0.046 ± 0.0028
8 | BF4T:uPA | -0.008 ± 0.014 | -0.0095 ± 0.022 | -0.0045 ± 0.016 | -0.007 ± 0.016 | -0.016 ± 0.0057 | 0.0065 ± 0.018 | -0.0045 ± 0.011 | -0.0115 ± 0.0064 | 0.012 ± 0.04 | -0.0065 ± 0.021 | -0.006 ± 0.014 | 0.004 ± 0.0057 | -0.001 ± 0.023 | -0.0145 ± 0.015 | -0.004 ± 0.021 | 0.0085 ± 0.019 | -0.013 ± 0.0028 | -0.001 ± 0.018 | -0.0075 ± 0.0064 | 0.02 ± 0.0028
9 | BT:B cell Proliferation | 0.021 ± 0.021 | 0.015 ± 0.0071 | 0.021 ± 0.0042 | 0.0085 ± 0.0021 | -0.011 ± 0.0014 | 0.012 ± 0.037 | 0.0065 ± 0.026 | 0.0035 ± 0.0035 | -0.01 ± 0.0085 | 0.0165 ± 0.013 | 0.0285 ± 0.0064 | 0.0195 ± 0.043 | 0.0115 ± 0.0092 | -0.001 | 0.0215 ± 0.0092 | 0.0405 ± 0.066 | 0.031 ± 0.017 | 0.0625 ± 0.098 | -0.009 ± 0.0099 | 0.01 ± 0.014
10 | BT:PBMC Cytotoxicity | 0.0515 ± 0.029 | 0.01 ± 0.0028 | 0.0125 ± 0.032 | -0.016 ± 0.0042 | 0.002 ± 0.0042 | 0.021 ± 0.0057 | -0.016 ± 0.0028 | -0.017 ± 0.025 | 0.0175 ± 0.016 | 0.008 ± 0.024 | 0.008 ± 0.0057 | -0.005 ± 0.0099 | -0.001 ± 0.0042 | -0.0015 ± 0.0035 | 0.016 | 0.007 | 0.0235 ± 0.0064 | 0.045 ± 0.0014 | 0.0195 ± 0.036 | 0.049 ± 0.058
11 | BT:Secreted IgG | 0.038 ± 0.02 | 0.0585 ± 0.018 | 0.0375 ± 0.028 | -0.041 ± 0.048 | -0.0035 ± 0.016 | -0.0205 ± 0.013 | -0.0085 ± 0.032 | -0.0035 ± 0.018 | -0.0005 ± 0.018 | 0.022 ± 0.048 | 0.0275 ± 0.037 | 0.023 ± 0.017 | 0.0115 ± 0.073 | 0.026 ± 0.0085 | -0.0005 ± 0.026 | 0.0005 ± 0.054 | -0.048 ± 0.031 | -0.081 ± 0.048 | 0.006 ± 0.0014 | 0.007 ± 0.03
12 | BT:sIL-2 | 0.001 ± 0.071 | 0.0735 ± 0.028 | -0.027 ± 0.058 | 0.029 ± 0.058 | -0.049 ± 0.12 | 0.001 ± 0.0085 | -0.0165 ± 0.049 | 0.0215 ± 0.0035 | 0.007 | 0.0335 ± 0.022 | 0.0145 ± 0.054 | 0.0365 ± 0.056 | 0.002 ± 0.058 | -0.056 ± 0.051 | 0.04 ± 0.0099 | -0.0555 ± 0.011 | 0.0325 ± 0.018 | -0.01 ± 0.031 | -0.0335 ± 0.018 | -0.059 ± 0.038
13 | BT:sIL-6 | 0.0525 ± 0.0092 | 0.0485 ± 0.0035 | 0.003 ± 0.014 | 0.032 ± 0.089 | -0.0455 ± 0.056 | -0.025 ± 0.03 | 0.007 ± 0.079 | 0.014 ± 0.025 | -0.019 ± 0.02 | 0.0575 ± 0.0078 | 0.015 ± 0.031 | 0.014 ± 0.021 | 0.0315 ± 0.074 | -0.0335 ± 0.023 | -0.0795 ± 0.11 | 0.0255 ± 0.039 | 0.0375 ± 0.016 | 0.003 ± 0.052 | 0.016 ± 0.024 | 0.0175 ± 0.047
14 | BT:sIL-17A | 0.009 ± 0.02 | 0.009 ± 0.045 | -0.176 ± 0.11 | -0.01 ± 0.047 | 0.024 ± 0.14 | -0.124 ± 0.13 | -0.0215 ± 0.057 | -0.0315 ± 0.12 | -0.041 ± 0.11 | -0.089 ± 0.0014 | -0.0745 ± 0.0064 | 0.0015 ± 0.05 | 0.059 ± 0.033 | 0.025 ± 0.19 | -0.0885 ± 0.32 | -0.135 ± 0.05 | -0.005 ± 0.081 | -0.126 ± 0.21 | 0.033 ± 0.018 | 0.061 ± 0.17
15 | BT:sIL-17F | 0.033 ± 0.078 | 0.031 ± 0.016 | 0.029 ± 0.033 | -0.088 ± 0.081 | -0.014 ± 0.054 | 0.0025 ± 0.043 | -0.051 ± 0.15 | -0.012 ± 0.096 | -0.0315 ± 0.079 | 0.0185 ± 0.069 | 0.028 ± 0.041 | 0.05 ± 0.033 | 0.0335 ± 0.019 | -0.0275 ± 0.015 | -0.018 ± 0.023 | 0.0005 ± 0.064 | 0.0725 ± 0.012 | 0.0155 ± 0.011 | -0.027 ± 0.018 | -0.064 ± 0.12
